# Assay results from PMC7700809 (Molecular Biomedicine, 2020).
# Where two headings read alike, the source gives them in different places.
# Columns and labels:
# [1] = In vivo plasma pharmacokinetics in rats; parameters: species or system Sprague-Dawley rats; settings: Rat; for MRT last: read-out: MRT0-t; for MRT inf: read-out: MRT0-∞
# Procedure: After dosage, blood samples were collected into heparinized tubes at 2, 5, 15, 30, 60, 120, 240, 360, 540, and 720 min for the i.v. group, and at 5, 15, 30, 60, 90, 120, 240, 360, 540, 720 and 1440 min for the i.g. group. Plasma (100 μL) was isolated from the blood sample by centrifuging at 4 °C and 6000 rpm for 3 min and then stored at − 80 °C until analysis. An aliquot of 100 μL of each plasma sample was mixed with 20 μL of internal standard working solution (200 ng/mL of caffeine). Methanol (400 μL) was then added for precipitation. After vortexing for 5 min and centrifuging at 14000 rpm for 10 min, 5 μL of the supernatant was injected for LC-MS/MS analysis.
# The PK parameters were analyzed through the noncompartment model using WinNonlin 6.1 software (Pharsight Corporation, Mountain View, USA), including half-life (T1/2), the peak of the plasma concentration (Cmax), the time to peak of the plasma concentration (Tmax), the area under the plasma concentration-time curve during the period of observation (AUC0-t), the area under the plasma concentration-time curve from zero to infinity (AUC0-∞), clearance (CL), apparent volume of distribution (Vd), and the mean residence time.
# [2] = Lung distribution in rats after oral administration
# Procedure: The male mice (20–25 g) and Sprague-Dawley rats (180–220 g) were provided by Laboratory Animal Center of Anhui Medical University (Hefei, China), and the beagle dogs were obtained from Nanjing Bosgene Biotech Co., Ltd. All the animals were housed under control conditions (temperature 23 ± 2 °C, humidity 50% ± 5%, 12 h dark/light cycle) with standardized diet and acclimatized for 7 days, prior to the experiments.
# Seventy-two mice or rats were randomly and equally divided into two groups. […] Tissues (liver, lung, and kidney) were promptly harvested at 1, 2, 4, 6, 9, 12, 24, 48, 72, and 144 h. Each tissue sample was homogenized (Tissue sample:saline ratio of 1:5, w/v). Tissue samples were stored at − 80 °C until further analysis. The preparation process for analysis was the same as described above for plasma.
# The LC-MS/MS system consisted of a SHIMADZU LC-30 AD series HPLC system (Shimadzu, Kyoto, Japan) and API4000 triple quadrupole mass spectrometer (Applied Biosystems Sciex, Ont., Canada) with electrospray ionization (ESI) source. Separation was carried out on a C18 column (2.1 × 100 mm, 5 μm, Hanbon, Jiangsu, China) kept at 40 °C. The mobile phase consisted of water (containing 0.1% formic acid, mobile phase A) and methanol (mobile phase B) with rate set at 0.3 mL/min. The optimal gradient elution curve included 0–1.0 min, 10% B; a linear increase to 90% a within 0.5 min; 90% B for 3.5 min; a linear decrease to 10% B within 0.5 min. 10% B for 1.5 min; 7.00 min, stop.
# LC-MS/MS was performed in the positive and multiple reaction monitoring (MRM) mode.
# in vitro = settings: African green monkey
# SARS-CoV-2 = experiment: microbe, parasite or virus in culture; type: cell-based; settings: Severe acute respiratory syndrome coronavirus 2, Vero; read-out: EC50 virus entry blocking
# in vivo = settings: mouse, iv, 1 mg/kg, I.V. 1 mg/kg; for AUC(0-inf): AUC0-∞; for AUC(0-inf) / AUC(0-t) / Cmax / MRT last / MRT inf / Tmax: mice; for AUC(0-t): AUC0-t; for MRT last: MRT0-t; for MRT inf: MRT0-∞; for half-life: T1/2, mice
# [3] = mice
# [4] = Sprague-Dawley, iv, I.V. 1 mg/kg
# [5] = Sprague-Dawley, po, P.O. 10 mg/kg
compound,measurement,setting,value
CC[C@H]1CN2CCc3cc(OC)c(OC)cc3[C@@H]2C[C@@H]1C[C@H]1NCCc2cc(OC)c(OC)cc21 [Emetine],AUMC0-t,[1]; I.V. 1 mg/kg,131 ± 18 hr*hr.*ng/mL
same,AUMC0-∞,[1]; I.V. 1 mg/kg,320 ± 141 hr*hr.*ng/mL
same,AUMC0-t,[1]; P.O. 10 mg/kg,1989 ± 15 hr*hr.*ng/mL
same,AUMC0-∞,[1]; P.O. 10 mg/kg,3676 ± 1871 hr*hr.*ng/mL
same,Cl,[1]; P.O. 10 mg/kg,"45,918 ± 5515 mL/hr./kg"
same,AUC(0-inf),[1]; [4],0.0398 ± 0.0113 µg·h/mL
same,AUC(0-t),[1]; [4],0.0298 ± 0.0061 µg·h/mL
same,C0,[1]; [4],0.0335 ± 0.0024 µg/mL
same,Cmax,[1]; [4],0.0269 ± 0.0048 µg/mL
same,Tmax,[1]; [4],0.03 h
same,clearance,[1]; [4],26.7 L/h/kg
same,half-life,[1]; [4],4.46 ± 1.18 h
same,MRT last,[1]; [4],4.41 ± 0.31 h
same,MRT inf,[1]; [4],7.76 ± 1.81 h
same,Vd,"[1]; Sprague-Dawley, iv, I.V. 1 mg/kg, read-out: Vz",163 L/kg
same,AUC(0-inf),[1]; [5],0.22 ± 0.028 µg·h/mL
same,AUC(0-t),[1]; [5],0.172 ± 0.018 µg·h/mL
same,Cmax,[1]; [5],0.0122 ± 0.0033 µg/mL
same,Tmax,[1]; [5],9 h
same,half-life,[1]; [5],5.16 ± 4.16 h
same,bioavailability,"[1]; Sprague-Dawley, po, P.O. 10 mg/kg vs I.V. 1 mg/kg, read-out: F (oral bioavailability)",55.3 ± 7.1%
same,MRT last,[1]; [5],11.6 ± 1.33 h
same,MRT inf,[1]; [5],16.2 ± 6 h
same,Rat lung con.,"[2]; 1 mg/kg (P.O.) single dose, 1 h",0.15 ± 0.03 ng/mL
same,Rat lung con.,"[2]; 1 mg/kg (P.O.) single dose, 2 h",0.26 ± 0.06 ng/mL
same,Rat lung con.,"[2]; 1 mg/kg (P.O.) single dose, 4 h",0.93 ± 0.32 ng/mL
same,Rat lung con.,"[2]; 1 mg/kg (P.O.) single dose, 6 h",1.01 ± 0.10 ng/mL
same,Rat lung con.,"[2]; 1 mg/kg (P.O.) single dose, 9 h",1.47 ± 0.09 ng/mL
same,Rat lung con.,"[2]; 1 mg/kg (P.O.) single dose, 12 h",1.61 ± 0.48 ng/mL
same,Rat lung con.,"[2]; 1 mg/kg (P.O.) single dose, 24 h",1.32 ± 0.63 ng/mL
same,Rat lung con.,"[2]; 1 mg/kg (P.O.) single dose, 48 h",0.76 ± 0.11 ng/mL
same,Rat lung con.,"[2]; 1 mg/kg (P.O.) single dose, 72 h",0.36 ± 0.08 ng/mL
same,Rat lung con.,"[2]; 1 mg/kg (Q.D.× 3 days, P.O.), 1 h",5.78 ± 0.61 ng/mL
same,Rat lung con.,"[2]; 1 mg/kg (Q.D.× 3 days, P.O.), 2 h",6.51 ± 0.67 ng/mL
same,Rat lung con.,"[2]; 1 mg/kg (Q.D.× 3 days, P.O.), 4 h",6.65 ± 1.21 ng/mL
same,Rat lung con.,"[2]; 1 mg/kg (Q.D.× 3 days, P.O.), 6 h",6.96 ± 0.87 ng/mL
same,Rat lung con.,"[2]; 1 mg/kg (Q.D.× 3 days, P.O.), 9 h",8.34 ± 1.09 ng/mL
same,Rat lung con.,"[2]; 1 mg/kg (Q.D.× 3 days, P.O.), 12 h",8.16 ± 1.58 ng/mL
same,Rat lung con.,"[2]; 1 mg/kg (Q.D.× 3 days, P.O.), 24 h",7.25 ± 0.79 ng/mL
same,Rat lung con.,"[2]; 1 mg/kg (Q.D.× 3 days, P.O.), 48 h",5.97 ± 0.81 ng/mL
same,Rat lung con.,"[2]; 1 mg/kg (Q.D.× 3 days, P.O.), 72 h",4.89 ± 1.35 ng/mL
same,Lung concentration,"[2]; rats, 1 mg/kg single oral dose, 12 h, 1 mg/kg",1.6 µM
same,time of maximum lung concentration (Cmax),"[2]; rats, 1 mg/kg/day oral 3 days",9 h
same,CC50,in vitro,1.96 µM
same,EC50,SARS-CoV-2,0.019 µM
same,AUC(0-inf),"in vivo; male, Kidney",99.1 µg·h/mL
same,AUC(0-inf),"in vivo; male, Lung",65.4 µg·h/mL
same,AUC(0-t),in vivo; Kidney,37 µg·h/mL
same,AUC(0-t),in vivo; Liver,41.3 µg·h/mL
same,AUC(0-t),in vivo; Lung,35.4 µg·h/mL
same,AUC(0-inf),in vivo; Liver,139 µg·h/mL
same,Cmax,in vivo; Kidney,4.55 µg/mL
same,Cmax,in vivo; Liver,4.42 µg/mL
same,Cmax,in vivo; Lung,8.58 µg/mL
same,MRT last,in vivo; Kidney,5.23 h
same,MRT last,in vivo; Liver,6.67 h
same,MRT last,in vivo; Lung,5.13 h
same,MRT inf,in vivo; Kidney,28.4 h
same,MRT inf,in vivo; Liver,28 h
same,MRT inf,in vivo; Lung,15.9 h
same,half-life,in vivo; Kidney,20.9 h
same,half-life,in vivo; Liver,17.3 h
same,half-life,in vivo; Lung,11.5 h
same,Tmax,in vivo; Kidney,0.5 h
same,Tmax,in vivo; Liver,9 h
same,Tmax,in vivo; Lung,0.03 h
same,Lung concentration,[3]; 1 mg/kg I.V. (12 h value of Table s2),3.8 µM
same,Kidney concentration,"[3]; I.V. 1 mg/kg, 0.033 h",8.52 ± 1.25 µM
same,Liver concentration,"[3]; I.V. 1 mg/kg, 0.033 h",4.11 ± 1.25 µM
same,Plasma concentration,"[3]; I.V. 1 mg/kg, 0.033 h",0.15 ± 0.06 µM
same,Kidney concentration,"[3]; I.V. 1 mg/kg, 0.083 h",8.04 ± 0.57 µM
same,Liver concentration,"[3]; I.V. 1 mg/kg, 0.083 h",3.05 ± 0.23 µM
same,Lung concentration,"[3]; I.V. 1 mg/kg, 0.083 h",16.5 ± 1.59 µM
same,Plasma concentration,"[3]; I.V. 1 mg/kg, 0.083 h",0.11 ± 0.02 µM
same,Kidney concentration,"[3]; I.V. 1 mg/kg, 0.5 h",9.48 ± 1.10 µM
same,Liver concentration,"[3]; I.V. 1 mg/kg, 0.5 h",5.01 ± 1.13 µM
same,Lung concentration,"[3]; I.V. 1 mg/kg, 0.5 h",10.3 ± 1.45 µM
same,Plasma concentration,"[3]; I.V. 1 mg/kg, 0.5 h",0.04 ± 0.02 µM
same,Kidney concentration,"[3]; I.V. 1 mg/kg, 1 h",9.24 ± 0.44 µM
same,Liver concentration,"[3]; I.V. 1 mg/kg, 1 h",4.78 ± 0.43 µM
same,Lung concentration,"[3]; I.V. 1 mg/kg, 1 h",7.73 ± 1.22 µM
same,Plasma concentration,"[3]; I.V. 1 mg/kg, 1 h",0.03 ± 0.006 µM
same,Kidney concentration,"[3]; I.V. 1 mg/kg, 2 h",9.04 ± 0.15 µM
same,Liver concentration,"[3]; I.V. 1 mg/kg, 2 h",6.12 ± 1.37 µM
same,Lung concentration,"[3]; I.V. 1 mg/kg, 2 h",7.12 ± 2.30 µM
same,Plasma concentration,"[3]; I.V. 1 mg/kg, 2 h",0.012 ± 0.003 µM
same,Kidney concentration,"[3]; I.V. 1 mg/kg, 4 h",6.16 ± 0.77 µM
same,Liver concentration,"[3]; I.V. 1 mg/kg, 4 h",6.46 ± 0.57 µM
same,Lung concentration,"[3]; I.V. 1 mg/kg, 4 h",5.85 ± 1.20 µM
same,Plasma concentration,"[3]; I.V. 1 mg/kg, 4 h",0.007 ± 0.001 µM
same,Liver concentration,"[3]; I.V. 1 mg/kg, 6 h",6.87 ± 0.65 µM
same,Lung concentration,"[3]; I.V. 1 mg/kg, 6 h",5.42 ± 0.13 µM
same,Plasma concentration,"[3]; I.V. 1 mg/kg, 6 h",0.009 ± 0.004 µM
same,Kidney concentration,"[3]; I.V. 1 mg/kg, 9 h",5.96 ± 0.76 µM
same,Liver concentration,"[3]; I.V. 1 mg/kg, 9 h",9.22 ± 0.81 µM
same,Lung concentration,"[3]; I.V. 1 mg/kg, 9 h",5.63 ± 1.00 µM
same,Plasma concentration,"[3]; I.V. 1 mg/kg, 9 h",0.008 ± 0.004 µM
same,Kidney concentration,"[3]; I.V. 1 mg/kg, 12 h",4.29 ± 0.79 µM
same,Liver concentration,"[3]; I.V. 1 mg/kg, 12 h",8.17 ± 1.46 µM
same,Lung concentration,"[3]; I.V. 1 mg/kg, 12 h",3.77 ± 0.96 µM
same,Plasma concentration,"[3]; I.V. 1 mg/kg, 12 h",0.007 ± 0.005 µM
same,Kidney concentration,"[3]; I.V. 1 mg/kg, 48 h",0.879 ± 0.278 µM
same,Liver concentration,"[3]; I.V. 1 mg/kg, 48 h",1.67 ± 0.872 µM
same,Lung concentration,"[3]; I.V. 1 mg/kg, 48 h",1.67 ± 0.28 µM
same,Liver concentration,"[3]; I.V. 1 mg/kg, 72 h",0.620 ± 0.024 µM
same,Lung concentration,"[3]; I.V. 1 mg/kg, 72 h",0.852 ± 0.075 µM
same,Kidney concentration,"[3]; I.V. 1 mg/kg, 144 h",0.174 ± 0.018 µM
same,Liver concentration,"[3]; I.V. 1 mg/kg, 144 h",0.129 ± 0.041 µM
same,Lung concentration,"[3]; I.V. 1 mg/kg, 144 h",0.263 ± 0.034 µM
same,AUMC0-t,"[3]; I.V. 1 mg/kg, Kidney","193,238 hr*hr.*ng/mL"
same,AUMC0-∞,"[3]; I.V. 1 mg/kg, Kidney","2,810,677 hr*hr.*ng/mL"
same,AUMC0-t,"[3]; I.V. 1 mg/kg, Liver","275,511 hr*hr.*ng/mL"
same,AUMC0-∞,"[3]; I.V. 1 mg/kg, Liver","3,897,180 hr*hr.*ng/mL"
same,AUMC0-t,"[3]; I.V. 1 mg/kg, Lung","181,502 hr*hr.*ng/mL"
same,AUMC0-∞,"[3]; I.V. 1 mg/kg, Lung","1,038,814 hr*hr.*ng/mL"
